In patent US12162836B2, “N-acyl-{4-[(4-aryl-phenyl)sulfonylmethyl]piperidine} compounds and their therapeutic use” (Modern Biosciences Limited, priority 2019, dated 2024):

What was measured:
[1] = system: collagen-induced arthritis in DBA/1j mice; assay: Mouse Collagen-Induced Arthritis; format: in vivo; conditions: 10 mg/kg/day, once daily for 14 days, oral gavage; arthritic index vs control
Experimental: Seven- to eight-week-old male DBA/1j mice were used for all procedures. Animals were housed in groups of 10, and were maintained at 21° C.±2° C. on a 12-hour light/dark cycle with food and water ad libitum. Complete Freund's adjuvant (CFA) was prepared by emulsifying bovine type II collagen at 4 mg/mL with a 4 mg/mL suspension of Mycobacterium tuberculosis H37Ra in Incomplete Freund's Adjuvant (IFA) (0.85 mL paraffin oil and 0.15 mL mannide monooleate) in a 1:1 (v/v) ratio. All mice were immunised subcutaneously with 200 μg of bovine type II collagen in CFA. 21 days later, all mice were immunised subcutaneously with 100 μg of bovine type II collagen in IFA. The mice started to develop signs and symptoms of arthritis following the ‘booster’ immunisation.
For macroscopic assessment of arthritis, the following signs were monitored in each paw of each mouse three times per week and summed to generate the Arthritic Index (A1) (the maximum A1 for one animal is 16): • 0=no visible effects of arthritis. • 1=oedema and/or erythema of 1 digit. • 2=oedema and/or erythema of 2 digits. • 3=oedema and/or erythema of more than 2 digits. • 4=severe arthritis of entire paw and digits.
Animals were sorted into treatment groups with a mean arthritic index of 2.5 and then dosed once daily for 14 days with compound: by oral gavage for test compounds, or by subcutaneous injection at a dose of 10 mg/kg for the positive control, etanercept. After completion of the experiment, the mice were sacrificed.
The data were analysed by generating an average of the arthritic index across each treatment group. The mean arthritic index was then compared to the arthritic index of control (untreated) animals using the following formula to generate a percentage inhibition of disease.

[2] = system: CYP1A2, CYP2C9, CYP2C19, CYP2D6 and CYP3A4; format: in vitro ADME, human
Experimental: The ability of test compounds to inhibit five of the most relevant cytochrome P450 enzymes was measured by determination of the activity of cytochrome P450 enzymes in recombinant cytochrome preparations, called Bactosomes (Cypex Ltd, Dundee, Scotland UK DD2 1 NH), in the presence of a specific probe substrate. Bactosomes are a highly efficient and cost-effective source of recombinant CYP450s which have a higher specific activity of enzyme compared to other sources, such as liver microsomes. […] The following CYP450 isoforms were assayed: CYP1A2, CYP2C9, CYP2C19, CYP2D6 and CYP3A4. The study of CYP450 inhibition potential in Bactosomes is accepted as a valuable model permitting rapid prediction of potential drug-drug interactions in vivo (see, e.g., Weaver et al., 2003).
Bactosomes were obtained from a commercial source (Cypex, Scotland, UK). Test compounds were incubated with Bactosomes at 6 concentrations. Samples were incubated for 10 minutes, after which the reaction was stopped and the samples analysed by LC-MS/MS Multiple Reaction Monitoring (MRM) for the presence/amount of substrate probe. […]

[3] = system: human, rat (Sprague Dawley) and dog (Beagle) hepatocytes; assay: Metabolite identification (biaryl metabolite detection) in cryopreserved hepatocytes; format: in vitro ADME; conditions: primary hepatocyte incubations, 10 μM, final time point (60 minutes)
Experimental: The formation of metabolites in humans, rats and dogs was assessed to determine the propensity of the compounds to form a biaryl metabolite.
In vitro studies on the metabolism of drugs are usually performed using liver preparations such as isolated perfused livers, liver slices, liver homogenates, isolated cryopreserved hepatocytes, subcellular liver fractions (S9, cytosol, and microsomes), or recombinant metabolizing enzymes overexpressed on non-expressing cell systems, particularly CYP enzymes. Cryopreserved hepatocytes contain all the enzymes and co-factors needed for phase I and phase II drug metabolism, making them an excellent in vitro model for assessment of drug metabolic stability and metabolite profiling.
Cryopreserved human, rat (Sprague Dawley) and dog (Beagle) hepatocytes were revived from liquid nitrogen and plated at a seeding density of 2×10^6 cells/mL (>95% viability). Following a 15 minute incubation at 37° C. a sample was removed for a zero (0) minute time point assessment. […]
All samples were processed for analysis by protein precipitation using 500 μL ice-cold acetonitrile and analysed with a fit-for-purpose LC-MS/MS method.
At the completion of the study, the results were expressed as detection of the biaryl metabolite at the final time point.

SMILES	% inhibition of disease [1]	drug-drug interaction liability, CYP450 inhibition profile (in words) [2]	Biaryl metabolite detected? [3]
CC1(O)CCC(NS(=O)(=O)c2ccc(-c3ccc(F)cc3F)cc2)CC1 (centres unmarked) [ABD899, reference compound]	77%	–	–
CC(=O)N1CCC(CS(=O)(=O)c2ccc(-c3ccc(C#N)cc3Cl)cc2)CC1 [NASMP-05, 4′-(((1-Acetylpiperidin-4-yl)methyl)sulfonyl)-2-chloro-[1,1′-biphenyl]-4-carbonitrile]	–	particularly good profile	–
CC(=O)N1CCC(CS(=O)(=O)c2ccc(-c3ccc(F)cc3F)cc2)CC1 [NASMP-01, 1-(4-(((2′,4′-Difluoro-[1,1′-biphenyl]-4-yl)sulfonyl)methyl)piperidin-1-yl)ethan-1-one]	64%	particularly good profile	No
